In one test the target is T1, IKKε (Homo sapiens, UniProt Q14164).
T1 construct: His-tag; made in house; host or cells: Sf9 insect cells
T1 sequence (Q14164 1-716): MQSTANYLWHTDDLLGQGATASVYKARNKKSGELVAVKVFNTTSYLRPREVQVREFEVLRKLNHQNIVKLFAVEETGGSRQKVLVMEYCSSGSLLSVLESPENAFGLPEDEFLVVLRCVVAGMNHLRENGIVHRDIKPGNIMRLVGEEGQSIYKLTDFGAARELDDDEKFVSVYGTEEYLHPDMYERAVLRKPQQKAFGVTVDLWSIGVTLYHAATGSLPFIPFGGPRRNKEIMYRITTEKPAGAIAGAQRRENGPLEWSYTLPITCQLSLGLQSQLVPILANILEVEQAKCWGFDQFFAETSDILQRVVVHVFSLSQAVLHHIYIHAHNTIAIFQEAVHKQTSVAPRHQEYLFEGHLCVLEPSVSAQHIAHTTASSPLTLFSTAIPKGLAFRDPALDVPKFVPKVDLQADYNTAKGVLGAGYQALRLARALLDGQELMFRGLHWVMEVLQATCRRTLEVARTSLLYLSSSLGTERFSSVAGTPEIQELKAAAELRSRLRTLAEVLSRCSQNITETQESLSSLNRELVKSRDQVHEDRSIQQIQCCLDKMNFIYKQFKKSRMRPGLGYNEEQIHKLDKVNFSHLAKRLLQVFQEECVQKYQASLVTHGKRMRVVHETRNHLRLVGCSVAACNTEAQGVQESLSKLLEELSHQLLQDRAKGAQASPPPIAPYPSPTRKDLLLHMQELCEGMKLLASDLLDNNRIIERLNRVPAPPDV
Description: In-vitro IKKε kinase assay ([γ33]ATP filter-plate). It is filed as biochemical. In a few lines: (§1)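 His-tagged Sf9-expressed kinases at 0.1 or 0.02 μg/ml (TBK1) and 0.1 or 0.015 μg/ml (IKKε) for normal and sensitized formats, with myelin basic protein or casein substrate. ATP was at 2×Km (60 μM TBK1, 32 μM IKKε) plus 0.3 μCi [γ33]ATP. Reactions ran 30-45 min, were captured on P-81 filters, and counts were normalized to DMSO.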

In another test the target is T2, TBK1 (Homo sapiens, UniProt Q9UHD2).
T2 construct: His-tag; made in house; host or cells: Sf9 insect cells
T2 sequence (Q9UHD2 1-729): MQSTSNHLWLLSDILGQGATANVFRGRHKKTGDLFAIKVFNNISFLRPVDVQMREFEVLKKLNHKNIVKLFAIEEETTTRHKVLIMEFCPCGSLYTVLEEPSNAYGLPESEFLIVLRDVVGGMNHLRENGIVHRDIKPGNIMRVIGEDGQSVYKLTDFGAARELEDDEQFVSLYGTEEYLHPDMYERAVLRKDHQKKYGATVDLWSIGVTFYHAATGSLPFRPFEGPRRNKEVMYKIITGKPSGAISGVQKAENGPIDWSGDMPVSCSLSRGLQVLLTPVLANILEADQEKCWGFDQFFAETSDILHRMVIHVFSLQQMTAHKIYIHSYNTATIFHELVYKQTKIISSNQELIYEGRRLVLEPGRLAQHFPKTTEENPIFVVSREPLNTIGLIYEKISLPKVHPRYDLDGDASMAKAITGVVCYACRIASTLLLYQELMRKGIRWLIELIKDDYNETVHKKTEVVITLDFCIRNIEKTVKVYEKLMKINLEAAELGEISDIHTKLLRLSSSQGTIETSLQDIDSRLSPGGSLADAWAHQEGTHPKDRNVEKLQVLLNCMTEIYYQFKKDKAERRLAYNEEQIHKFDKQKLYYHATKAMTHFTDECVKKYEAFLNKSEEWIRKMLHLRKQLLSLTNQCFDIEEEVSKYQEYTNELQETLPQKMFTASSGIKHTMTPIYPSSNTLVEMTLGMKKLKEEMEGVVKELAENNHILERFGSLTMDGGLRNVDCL
Description: In-vitro TBK1 kinase assay ([γ33]ATP filter-plate). It is filed as biochemical. In outline:
as §1

Test [1] deals with IKKε-mediated phosphorylation of IRF3. Description: In-situ phosphorylation of IRF3 (pIRF3 Ser396 ELISA) in HEK293T cells cotransfected with IRF3 and IKKε. In kind it is cell-based. The note with it: Homo sapiens, HEK-293T. In a few lines:
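For the IRF3 ELISA, HEK293T cells cotransfected with IRF3 and IKKε were replated at 20,000/well and treated 20 h. Phospho-Ser396 IRF3 was measured by ELISA and normalised to DMSO, with viability checked by CellTiter-Glo. For IRF7, cells transfected with IRF7 and TBK1 were treated overnight, and pSer477/Ser479 IRF7 was detected by Western blot.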
A general note: ELISA stands for enzyme-linked immunosorbent assay.

Setting [2] is: text bins, read-out: IC50 for inhibition of the kinase activity of IKKε.
Setting [3] is: text bins, read-out: IC50 for inhibition of the kinase activity of TBK1.
The mark [4] stands for this setting: HEK293T cells in culture, Table 3, read-out: pIRF3 ELISA IC50.
The mark [5] stands for this setting: HEK293T cells, 20 hours, text bins, read-out: IC50 for inhibition of the in-situ IKKε-mediated phosphorylation of IRF3.

pIC50: −log10 of the molar value. Where two headings read alike, the source gives them in different places.

By pIC50 is commonly meant the negative decadic logarithm of the IC50, by convention in mol/L. For the molecule `N#Cc1cc(-c2ccnc(Nc3cccc(CS(=O)(=O)NCCO)c3)n2)ccc1OC1CCOCC1` [compound 619, 1-[3-({4-[3-Cyano-4-(tetrahydro-2H-pyran-4-yloxy)phenyl]pyrimidin-2-yl}amino)phenyl]-N-(2-hydroxyethyl) methanesulfonamide], the negative logarithm of the IC50 (pIC50) at IKKε (Table 3, read-out: IKKε IC50) is 8.92; at IKKε (setting [2]), greater than 8.30; at TBK1 (Table 3, read-out: TBK1 IC50) it was 9.70; on TBK1 (setting [3]), greater than 8.00; in test [1] (setting [4]) it was 6.54; in test [1] (setting [5]), 6.30 to 6.60.

`CN1CCN(C(=O)Nc2ccc(Nc3nccc(-c4ccc(OC5CCOCC5)c(C#N)c4)n3)cc2)CC1` [Example 20, N-[4-({4-[3-cyano-4-(tetrahydro-2H-pyran-4-yloxy)phenyl]pyrimidin-2-yl}amino)phenyl]-4-methylpiperazine-1-carboxamide]: the values for the pIC50 (at IKKε (setting [2]); on TBK1 (setting [3]); in test [1] (setting [5])) were greater than 8.30, greater than 8.00 and 6.30 to 6.60, respectively.

On to `COc1cc(Nc2nccc(-c3ccc(OC4CCOCC4)c(C#N)c3)n2)ccc1C(=O)N1CC(OC)C1` [compound 484, 5-[2-({3-Methoxy-4-[(3-methoxyazetidin-1-yl)carbonyl]phenyl}amino)pyrimidin-4-yl]-2-(tetrahydro-2H-pyran-4-yloxy)benzonitrile], for which the values for the negative-log IC50 (pIC50) (at IKKε (setting [2]); at TBK1 (setting [3]); in test [1] (setting [5])) were greater than 8.30, 7.00 to 8.00 and greater than 7.00, respectively.

As for `N#Cc1cc(-c2ccnc(Nc3ccc(CN4CCN(CCO)CC4)cc3)n2)ccc1OC1CCOCC1` [compound 511, 5-{2-[(4-{[4-(2-hydroxyethyl)piperazin-1-yl]methyl}phenyl)amino]pyrimidin-4-yl}-2-(tetrahydro-2H-pyran-4-yloxy)benzonitrile], the negative-log IC50 (pIC50) is greater than 8.30 at IKKε (setting [2]), greater than 8.00 at TBK1 (setting [3]) and 6.60 to 7.00 in test [1] (setting [5]).

For `CN1CCN(c2ccc(Nc3nccc(-c4ccc(OC5CCOCC5)c(C#N)c4)n3)cc2)CC1` [Example 178, 5-(2-{[4-(4-methylpiperazin-1-yl)phenyl]amino}pyrimidin-4-yl)-2-(tetrahydro-2H-pyran-4-yloxy)benzonitrile], the pIC50 at IKKε (setting [2]) is greater than 8.30; on TBK1 (setting [3]), greater than 8.00; in test [1] (setting [5]) it was greater than 7.00.

Consider `N#Cc1cc(-c2ccnc(Nc3cccc(NC(=O)N4CCC(O)C4)c3)n2)ccc1OC1CCOCC1` (stereo not drawn) [compound 536, N-[3-({4-[3-Cyano-4-(tetrahydro-2H-pyran-4-yloxy)phenyl]pyrimidin-2-yl}amino)phenyl]-3-hydroxypyrrolidine-1-carboxamide], for which the negative-log IC50 (pIC50) at IKKε (Table 3, read-out: IKKε IC50) is 9.52; on IKKε (setting [2]) it was greater than 8.30; at TBK1 (Table 3, read-out: TBK1 IC50), 8.89; on TBK1 (setting [3]), greater than 8.00; in test [1] (setting [4]), 7.21; in test [1] (setting [5]) it was greater than 7.00.

For `CCN(CC)CCNC(=O)c1ccc(Nc2nccc(-c3ccc(OC4CCOCC4)c(C#N)c3)n2)cc1OC` [compound 506, 4-({4-[3-cyano-4-(tetrahydro-2H-pyran-4-yloxy)phenyl]pyrimidin-2-yl}amino)-N-[2-(diethylamino)ethyl]-2-methoxybenzamide], the negative-log IC50 (pIC50) is greater than 8.30 at IKKε (setting [2]), greater than 8.00 on TBK1 (setting [3]) and greater than 7.00 in test [1] (setting [5]).

As for `COc1cc(Nc2nccc(-c3ccc(OC4CCN(C(=O)CO)C4)c(C#N)c3)n2)ccc1N1CCOCC1` (stereo not drawn) [Example 223, 2-{[1-(hydroxyacetyl)pyrrolidin-3-yl]oxy}-5-(2-{[3-methoxy-4-(morpholin-4-yl)phenyl]amino}pyrimidin-4-yl)benzonitrile], the negative logarithm of the IC50 (pIC50) on IKKε (setting [2]) is greater than 8.30; on TBK1 (setting [3]), greater than 8.00; in test [1] (setting [5]) it was greater than 7.00.

In the case of `N#Cc1cc(-c2ccnc(Nc3ccc(OCCCN4CCOCC4)cc3)n2)ccc1OC1CCOCC1` [compound 527, 5-[2-({4-[3-(morpholin-4-yl)propoxy]phenyl}amino)pyrimidin-4-yl]-2-(tetrahydro-2H-pyran-4-yloxy)benzonitrile], the results for the pIC50 (at IKKε (setting [2]); on TBK1 (setting [3]); in test [1] (setting [5])) were greater than 8.30, greater than 8.00 and greater than 7.00, respectively.

`COc1ccc(Nc2nccc(-c3ccc(OC4CCOCC4)c(C#N)c3)n2)cc1OCCCN1CCN(C(C)C)CC1` [compound 523, 5-{2-[(4-methoxy-3-{3-[4-(propan-2-yl)piperazin-1-yl]propoxy}phenyl)amino]pyrimidin-4-yl}-2-(tetrahydro-2H-pyran-4-yloxy)benzonitrile]: the negative-log IC50 (pIC50) on IKKε (setting [2]) was greater than 8.30; at TBK1 (setting [3]), greater than 8.00; in test [1] (setting [5]), greater than 7.00.

Regarding `Cc1ccc(Nc2nccc(-c3ccc(OC4CCOCC4)c(C#N)c3)n2)cc1OCCN1CCNCC1` [compound 533, 5-[2-({4-Methyl-3-[2-(piperazin-1-yl)ethoxy]phenyl}amino)pyrimidin-4-yl]-2-(tetrahydro-2H-pyran-4-yloxy)benzonitrile], the values for the pIC50 (on IKKε (setting [2]); at TBK1 (setting [3]); in test [1] (setting [5])) were greater than 8.30, greater than 8.00 and greater than 7.00, respectively.

For the molecule `COc1cc(-c2ccnc(Nc3ccc(N4CCOCC4)cc3)n2)cc(C#N)c1OC1CCN(C(=O)[C@@H](C)O)CC1` [compound 436, 2-({1-[(2R)-2-Hydroxypropanoyl]piperidin-4-yl}oxy)-3-methoxy-5-(2-{[4-(morpholin-4-yl)phenyl]amino}pyrimidin-4-yl)benzonitrile], the figures for the pIC50 (at IKKε (setting [2]); on TBK1 (setting [3]); in test [1] (setting [5])) were greater than 8.30, greater than 8.00 and greater than 7.00, respectively.

As to `N#Cc1cc(-c2ccnc(Nc3cccc(CO)c3)n2)ccc1OC1CCOCC1` [compound 395, 5-(2-{[3-(hydroxymethyl)phenyl]amino}pyrimidin-4-yl)-2-(tetrahydro-2H-pyran-4-yloxy)benzonitrile], the negative-log IC50 (pIC50) at IKKε (setting [2]) was greater than 8.30; at TBK1 (setting [3]), greater than 8.00; in test [1] (setting [5]), greater than 7.00.

For `N#Cc1cc(-c2ccnc(Nc3cccc(N4CCN(CCO)CC4)c3)n2)ccc1OC1CCOCC1` [compound 620, 5-[2-({3-[4-(2-Hydroxyethyl)piperazin-1-yl]phenyl}amino)pyrimidin-4-yl]-2-(tetrahydro-2H-pyran-4-yloxy)benzonitrile], the negative-log IC50 (pIC50) is 9.15 at IKKε (Table 3, read-out: IKKε IC50); greater than 8.30 on IKKε (setting [2]); 8.72 on TBK1 (Table 3, read-out: TBK1 IC50); greater than 8.00 on TBK1 (setting [3]); 7.30 in test [1] (setting [4]); greater than 7.00 in test [1] (setting [5]).

In the case of `CCOC1CN(C(=O)c2ccc(Nc3nccc(-c4ccc(OC5CCOCC5)c(C#N)c4)n3)cc2OC)C1` [compound 599, 5-[2-({4-[(3-Ethoxyazetidin-1-yl)carbonyl]-3-methoxyphenyl}amino)pyrimidin-4-yl]-2-(tetrahydro-2H-pyran-4-yloxy)benzonitrile], the pIC50 on IKKε (setting [2]) was greater than 8.30; on TBK1 (setting [3]), greater than 8.00; in test [1] (setting [5]) it was greater than 7.00.

Turning to `N#Cc1cc(-c2ccnc(Nc3ccc(CN)cc3)n2)ccc1OC1CCOCC1` [compound 486, 5-(2-{[4-(aminomethyl)phenyl]amino}pyrimidin-4-yl)-2-(tetrahydro-2H-pyran-4-yloxy)benzonitrile], the pIC50 on IKKε (setting [2]) is greater than 8.30; on TBK1 (setting [3]) it was greater than 8.00; in test [1] (setting [5]), 6.30 to 6.60.

The values above are taken from US20150352108A1, “AMINO-PYRIMIDINE COMPOUNDS AS INHIBITORS OF TBK1 AND/OR IKK EPSILON” (Alzheimer's Institute of America, priority 2009, published 2015).
